Measured values: patent US11878972B2, “Treatment of neurological disorders” (TORQUR AG, priority 2016, dated 2024)

What was measured:
[1] = test system: S6 phosphorylation (S235/236); experiment: mTOR signaling in brain samples of pilocarpine pre-treated and naïve mice (western blot); type: in vivo, mouse; details: for decrease of S6 phosphorylation (S235/236) versus control: brain, 3 hours after single oral dose: Cpd. 3 40 mg/kg, Cpd. 8 25 mg/kg, everolimus 5 mg/kg
Protocol: A ramping-up dosing protocol was used which has the advantage that pilocarpine can be individually applied according to the susceptibility of each mouse. Pilocarpine (Sigma-Aldrich, Germany) was administered to female NMRI mice intraperitoneally at a dose of 100 mg/kg (Pilo-SE group). […] To reduce peripheral side effects of pilocarpine, methylscopolamine (Sigma-Aldrich, Germany) was administered 30 minutes prior to the first injection of pilocarpine. Animals were continuously monitored and duration of convulsive SE was registered [referred to Racine's scale. SE onset was defined as continuous ongoing seizure activity following occurrence of one or two generalized tonic-clonic seizures [stage 4 or 5 on the Racine scale]. SE was characterized by head nodding in an upright (sitting) body position, Straub tail, and slight to moderate convulsions of forelimbs, sometimes interrupted by further generalized tonic-clonic seizures. In order to reduce mortality, SE was terminated by diazepam (10 mg/kg i.p.; diazepam-ratiopharm 10, injection solution) 90 min after SE onset. […] In the sham-SE group mice were treated with the same treatment scheme as the pilo-SE group but pilocarpine was replaced by 0.9% sodium chloride solution. The mortality in the pilo-SE model in mice is relatively high (overall about 50%) and can vary markedly between experimental groups/days. Therefore we had to start with a large number of mice for SE induction in order to reliably obtain a group size of 20-22 animals for the MEST.
Brain samples from pilocarpine treated mice and untreated mice were snap frozen and tissue was lysed in buffer containing 25 mM Tris-HCl, pH 8, 50 mM NaCl, 0.5% (w/v) sodium deoxycholate (DOC), and 0.5% (w/v) Triton X-100 and supplemented with complete protease inhibitor (Roche, Mannheim, Germany) and Phosphostop (NEB, USA). Disruption of cell lysates was performed by drawing up the cell suspension twenty times into a syringe with a small gauge needle (21 G) on ice. Protein concentrations in the lysates were determined by using the Pierce BCA Protein Assay kit (Thermo Scientific, Bonn, Germany) according to the manufacturer's instructions. […] Membranes were incubated with primary antibodies anti S6 1:1000, anti S6 Phospho Serin (240/244) 1:1000, anti S6 Phospho Serin (235/236) 1:2000 (NEB) and anti-Actin 1:100 (Sigma-Aldrich) for 1 h in 2% milk in PBST at room temperature (RT) and washed three times for 10 min in PBS-T. Secondary antibodies anti-rabbit-HRP 1:1000 (Dako, Hamburg, Germany) were incubated for 1 h in 2% milk in PBST at RT and washed three times for 10 min in PBST. Proteins were detected by enhanced chemiluminescence using SuperSignal West Femto Chemiluminescent Substrate (Thermo Scientific) and the ChemiDoc system (Bio-Rad, Munich, Germany) with QuantityOne software (Bio-Rad) according to the manufacturer's protocol. Relative protein expressions were quantified densitometrically with QuantityOne (Bio-Rad) software and calculated by normalization to the reference signals of actin with GraphPad Prism software (GraphPad, San Diego, CA, USA).
Pilocarpine pre-treated and naïve mice were treated with a single oral dose of Cpd. 3 (40 mg/kg), Cpd. 8 (25 mg/kg), everolimus (5 mg/kg) or vehicle. 5 mice per group were utilized and sacrificed after 3 hours.

[2] = test system: female NMRI mice, nonepileptic (sham-SE) and epileptic (pilo-SE); experiment: Maximal electroshock seizure threshold test (MEST); type: in vivo, mouse; details: pretreatment 3 h
Protocol: A total of 166 adult female NMRI mice were used obtained from Charles River (Sulzfeld, Germany) at a weight range of 21-25 g (mice). Animals were kept under the following conditions: Housing: Animals were housed in groups of max. 8 mice under controlled conditions (temperature: 22±1° C.; humidity: 50% 60%/), under a 12-h light-dark cycle (lights on at 6:00 a.m.). Feeding: Standard laboratory chow (Altromin 1324 standard diet, Altromin Spezialfutter GmbH, Lage, Germany) was provided ad libitum. Drinking water: Tap water was provided ad libitum.
The MEST determines a population seizure threshold in groups of ˜20 animals and not the threshold for an individual animal. In the present study, the MEST was determined by a staircase procedure as previously described. A stimulator (BMT Medizintechnik, Berlin, Germany) that delivered a constant current (adjustable from 1-200 mA regardless of the impedance of the animal) with sinusoidal pulses (50/sec) for 0.2 sec was used.
Current administration was performed via bilateral transcorneal stimulation (using copper electrodes). Before transcorneal stimulation, a drop of tetracaine solution (2%) was administered to the eyes of the mouse for local anesthesia. Two minutes later, the mouse was restrained by hand to press the copper electrodes on both corneas while the stimulus was applied by stepping on a foot pedal switch connected with the stimulator. Electrodes were covered with soft leather and soaked with saline before each current application. […] The first stimulation was started with a current near to the control threshold.
3 (HCl): 40/100 mg in 10 ml (Suspension; 5% PEG 400 and 2% Tween 80, HPBCD (10%6)) • Cpd. 8 (HCl): 12.5/25 mg in 10 ml (5% PEG 400 and 2% Tween 80, HPBCD (10%))
Statistical analysis were calculated using Student's t-test. All tests were used two-sided; a P<0.05 was considered significant.
We performed no special tests for the determination of adverse effects. Mice were observed about 30 min after injection in their home cages for obvious sedation or reduction of wellbeing. Five minutes before electrical stimulation mice were again observed in their home cages and two minutes before stimulation during handling procedure for treatment with local anaesthesia. Every obvious variation from normal behavior was noted. Only phenobarbital induced noticeable sedation which lasted for more than 60 min. All other test drugs (including vehicle solutions) were tolerated without any obvious adverse effects.

[3] = target: T1, N-terminally GST-tagged mTOR (truncated version: amino acids 1360-2549) (Homo sapiens, UniProt P42345); experiment: In vitro mTOR binding assay (LanthaScreen TR-FRET); details: 3 nM GST-mTOR, 10 nM Tracer 314, 30 min at RT
T1 construct: truncated version: amino acids 1360-2549; purchased Life Technologies PR8683B
Protocol: A 10-point 4-fold serial dilution (highest concentration at 10 μmol/L and lowest concentration at 40 pmol/L) of each compound was tested for mTOR binding in duplicate in a 384-well plate. […] After 30 min incubation at RT, time-resolved FRET was measured with a Synergy 4 multi-mode microplate reader (Biotek Instruments) using the following settings: 100 microsecs delay before data collection, 200 microsecs time for data collection, 10 measurements per data point.
IC50 values of each compound were determined by plotting the emission ratio versus the compound concentrations (in logarithmic scale) and then by fitting a sigmoidal dose-response curve with variable slope to the data using GraphPad™ Prism.

[4] = test system: pPKB S473 in A2058 cells; experiment: In-cell Western blot, pPKB S473; type: cell-based; details: Homo sapiens, treated for 1 hour, normalized to α-tubulin
Protocol: (§1) Cells are fixed with 4% paraformaldehyde for 30 minutes at room temperature, washed 2 times with 1% BSA in PBS, permeabilized with 0.1% Triton X-100 in PBS/1% BSA for 30 minutes at room temperature and blocked with 5% goat serum in PBS/1% BSA/0.1% Triton X-100 for 30 minutes at room temperature. […] Cells are washed 3 times 5 minutes with PBS/1% BSA/0.1% triton and plate scanned with the Odyssey Infrared Scanning system using both 700 and 800 nm channels. […] To correct for background staining in the data analysis wells are treated only with secondary antibodies.
(§2) For data analysis the mean background signal from channel 700 nm and 800 nm are subtracted from each signal in channel 700 nm and 800 nm, respectively.
(§3) IC50 values of each compound are determined by plotting the normalized pPBK S473 and pS6 S235/S236 signals, respectively, versus the compound concentrations (in logarithmic scale) and then by fitting a sigmoidal dose-response curve with variable slope to the data using GraphPad™ Prism.

[5] = test system: pS6 S235/S236 in A2058 cells; experiment: In-cell Western blot, pS6 S235/S236; type: cell-based; details: Homo sapiens, treated for 1 hour, normalized to α-tubulin
Protocol: as §1, §2, §3

T1 sequence (P42345 1360-2549): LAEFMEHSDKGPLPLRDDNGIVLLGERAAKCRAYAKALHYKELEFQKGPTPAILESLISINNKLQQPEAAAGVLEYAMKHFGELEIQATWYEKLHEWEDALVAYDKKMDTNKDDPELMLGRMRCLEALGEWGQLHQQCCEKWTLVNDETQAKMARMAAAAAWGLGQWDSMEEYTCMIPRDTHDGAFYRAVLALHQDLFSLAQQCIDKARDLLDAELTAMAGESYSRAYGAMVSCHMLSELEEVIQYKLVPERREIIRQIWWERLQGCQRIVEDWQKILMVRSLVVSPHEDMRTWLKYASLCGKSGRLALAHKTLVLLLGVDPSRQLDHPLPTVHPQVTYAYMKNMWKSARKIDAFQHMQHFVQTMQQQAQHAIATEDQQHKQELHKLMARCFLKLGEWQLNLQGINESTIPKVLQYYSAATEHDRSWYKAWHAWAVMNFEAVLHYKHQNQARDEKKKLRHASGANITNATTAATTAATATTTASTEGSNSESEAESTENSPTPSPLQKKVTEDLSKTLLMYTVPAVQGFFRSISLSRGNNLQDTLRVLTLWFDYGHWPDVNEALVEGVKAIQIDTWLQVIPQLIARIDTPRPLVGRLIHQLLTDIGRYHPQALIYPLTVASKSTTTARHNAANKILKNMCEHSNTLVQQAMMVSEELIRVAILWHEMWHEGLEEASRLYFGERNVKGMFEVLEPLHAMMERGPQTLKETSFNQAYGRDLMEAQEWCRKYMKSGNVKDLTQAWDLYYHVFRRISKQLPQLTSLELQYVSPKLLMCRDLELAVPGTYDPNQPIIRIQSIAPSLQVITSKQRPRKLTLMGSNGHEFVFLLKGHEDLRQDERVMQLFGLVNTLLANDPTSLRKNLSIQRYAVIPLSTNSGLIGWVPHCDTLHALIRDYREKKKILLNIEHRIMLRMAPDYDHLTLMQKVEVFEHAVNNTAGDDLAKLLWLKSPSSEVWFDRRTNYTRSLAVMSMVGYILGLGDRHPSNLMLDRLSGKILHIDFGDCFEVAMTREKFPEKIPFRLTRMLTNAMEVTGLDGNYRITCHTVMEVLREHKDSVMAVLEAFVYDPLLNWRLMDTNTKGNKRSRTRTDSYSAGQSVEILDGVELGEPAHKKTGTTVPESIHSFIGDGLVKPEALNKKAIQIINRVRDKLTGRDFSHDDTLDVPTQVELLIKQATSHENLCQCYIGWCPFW

In the case of CO[C@H]1C[C@@H]2CC[C@@H](C)[C@@](O)(O2)C(=O)C(=O)N2CCCC[C@H]2C(=O)O[C@H]([C@H](C)C[C@@H]2CC[C@@H](OCCO)[C@H](OC)C2)CC(=O)[C@H](C)/C=C(\C)[C@@H](O)[C@@H](OC)C(=O)[C@H](C)C[C@H](C)/C=C/C=C/C=C/1C [everolimus, reference compound], the “decrease of S6 phosphorylation (S235/236) versus control” value ([1]; epileptic (pilocarpine pre-treated) mice) is reported as “No significant changes”, the “S6 phosphorylation / mTOR signaling in brain (FIG. 3B)” value ([1]; epileptic/pilocarpine pre-treated and naïve mice, single oral dose) is reported as “did not show significant mTOR signaling inhibition in brain” and the “decrease of S6 phosphorylation (S235/236) versus control” value ([1]; naïve mice) is reported as “No significant changes”. The “Threshold difference between nonepileptic and epileptic” value ([2]; 5 mg/kg everolimus p.o.) was 20%, the “Threshold difference between vehicle and drug threshold, epileptic” value ([2]; 5 mg/kg everolimus p.o.) was 16% and the “Threshold difference between vehicle and drug threshold, nonepileptic” value ([2]; 5 mg/kg everolimus p.o.) was 13%. The “Threshold difference between nonepileptic and epileptic” value ([2]; 10 mg/kg everolimus p.o.) was 1% and the “Threshold difference between vehicle and drug threshold, nonepileptic” value ([2]; 10 mg/kg everolimus p.o.) was 10%.

In the case of Nc1ncc(-c2nc(N3CCOCC3)nc(N3CCSCC3)n2)c(C(F)(F)F)n1, the IC50 [3] is reported as 394 nM.

Nc1cc(C(F)(F)F)c(-c2nc(N3CCNCC3)nc(N3CCOCC3)n2)cn1 gave an IC50 [3] of 796 nM.

With Nc1cc(C(F)(F)F)c(-c2nc(N3CCOCC3)nc(N3CCSCC3)n2)cn1 the IC50 [3] was 118 nM.

Nc1ncc(-c2nc(N3CCNCC3)nc(N3CCOCC3)n2)c(C(F)(F)F)n1 gave an IC50 [3] of 2830 nM.

For Nc1cc(C(F)F)c(-c2nc(N3CCOCC3)cc(N3CCOCC3)n2)cn1 [Compound 18, 4-(difluoromethyl)-5-(4,6-dimorpholinopyrimidin-2-yl)pyridin-2-amine], the IC50 [4] was 243 nM and the IC50 ([5]; A2058, 1 h) was 256 nM.

For C[C@@H]1COCCN1c1nc(-c2cnc(N)cc2C(F)F)nc(N2CCOC[C@H]2C)n1 [Compound 41, 5-[4,6-bis[(3R)-3-methylmorpholin-4-yl]-1,3,5-triazin-2-yl]-4-(difluoromethyl)pyridin-2-amine], the IC50 [4] was 436 nM and the IC50 [5] was 261 nM.

C[C@H]1COCCN1c1nc(-c2cnc(N)cc2C(F)(F)F)nc(N2CCOCC2)n1 [reference compound] was tested, and the IC50 [4] was 196 nM and the IC50 [5] was 90 nM.
